In publication PMC11012124, “Synthesis of Novel Triazine-Based Chalcones and 8,9-dihydro-7H-pyrimido[4,5-b][1,4]diazepines as Potential Leads in the Search of Anticancer, Antibacterial and Antifungal Agents” (International Journal of Molecular Sciences, 2024):

Tests used:
NCI-H226 = assay: cells; conditions: Homo sapiens, NCI-H226, 48 h; for CC50: read-out: LC50
OVCAR-3 = assay: cells; conditions: Homo sapiens, OVCAR-3, 48 h; for CC50: read-out: LC50
MDA-MB-435 = assay: cells; conditions: Homo sapiens, MDA-MB-435, 48 h; for CC50: read-out: LC50
UACC-62 = assay: cells; conditions: Homo sapiens, UACC-62, 48 h; for CC50: read-out: LC50
M14 = assay: cells; conditions: Homo sapiens, M14, 48 h; for CC50: read-out: LC50
U251 = assay: cells; conditions: Homo sapiens, U-251, 48 h; for GI50: U251, 48 h; for CC50: read-out: LC50
HS 578T = assay: cells; conditions: Homo sapiens, 48 h; for CC50: read-out: LC50
EKVX = assay: cells; conditions: Homo sapiens, 48 h; for CC50: read-out: LC50
MDA-MB-231/ATCC = assay: cells; conditions: Homo sapiens, MDA-MB-231, 48 h; for CC50: read-out: LC50
UACC-257 = assay: cells; conditions: Homo sapiens, UACC-257, 48 h; for CC50: read-out: LC50
OVCAR-5 = assay: cells; conditions: Homo sapiens, OVCAR-5, 48 h; for CC50: read-out: LC50
SF-268 = assay: cells; conditions: Homo sapiens, SF-268, 48 h; for CC50: read-out: LC50
MCF7 = assay: cells; conditions: Homo sapiens, MCF7, 48 h; for CC50: read-out: LC50
HL-60(TB) = assay: cells; conditions: Homo sapiens, HL-60, 48 h; for CC50: read-out: LC50
DU-145 = assay: cells; conditions: Homo sapiens, DU-145, 48 h; for CC50: read-out: LC50
T-47D = assay: cells; conditions: Homo sapiens, T47D, 48 h; for CC50: read-out: LC50
BT-549 = assay: cells; conditions: Homo sapiens, BT-549, 48 h; for CC50: read-out: LC50
A498 = assay: cells; conditions: Homo sapiens, A498, 48 h; for CC50: read-out: LC50
SN12C = assay: cells; conditions: Homo sapiens, 48 h; for CC50: read-out: LC50
RPMI-8226 = assay: cells; conditions: Homo sapiens, RPMI-8226, 48 h; for CC50: read-out: LC50
OVCAR-8 = assay: cells; conditions: Homo sapiens, OVCAR-8, 48 h; for CC50: read-out: LC50
NCI-H322M = assay: cells; conditions: Homo sapiens, 48 h; for CC50: read-out: LC50
HT29 = assay: cells; conditions: Homo sapiens, HT-29, 48 h; for CC50: read-out: LC50
[1] = Hemolytic activity, spectrophotometric; format: cell-based, human; conditions: human, human red blood cells (huRBC), 5% hematocrit, 200 μg/mL, 37 °C
LOX IMVI = assay: cells; conditions: Homo sapiens, 48 h; for CC50: read-out: LC50, LOX IMVI, 48 h
CCRF-CEM = assay: cells; conditions: Homo sapiens, 48 h; for CC50: read-out: LC50
ACHN = assay: cells; conditions: Homo sapiens, 48 h; for CC50: read-out: LC50
HCT-116 = assay: cells; conditions: Homo sapiens, HCT-116, 48 h; for CC50: read-out: LC50
OVCAR-4 = assay: cells; conditions: Homo sapiens, OVCAR-4, 48 h; for CC50: read-out: LC50
MOLT-4 = assay: cells; conditions: Homo sapiens, MOLT-4, 48 h; for CC50: read-out: LC50
SF-539 = assay: cells; conditions: Homo sapiens, SF-539, 48 h; for CC50: read-out: LC50, SF-539, 48 h
SF-295 = assay: cells; conditions: Homo sapiens, SF-295, 48 h; for CC50: read-out: LC50
60 cancer cell lines = assay: NCI-60 one-dose screen (10 μM); format: cell-based; conditions: Homo sapiens; one dose of 10 μM, mean over 60 cancer cell lines; read-out: Mean Growth Percent (MGP)
Excerpt: Additionally, the mean of the growth percentages (MGP) of each compound against all the 60 cancer cell lines is also reported, which is used as one of the selection criteria to continue with tests at five concentration doses.

MALME-3M = assay: cells; conditions: Homo sapiens, 48 h; for CC50: read-out: LC50
COLO 205 = assay: cells; conditions: Homo sapiens, COLO 205, 48 h; for CC50: read-out: LC50
UO-31 = assay: cells; conditions: Homo sapiens, UO-31, 48 h; for CC50: read-out: LC50
PC-3 = assay: cells; conditions: Homo sapiens, PC-3, 48 h; for CC50: read-out: LC50
HOP-62 = assay: cells; conditions: Homo sapiens, HOP-62, 48 h; for CC50: read-out: LC50

CN(C)c1nc(NCCNS(=O)(=O)c2ccc(C(=O)/C=C/c3ccc(C(F)(F)F)cc3)cc2)nc(Nc2ccc(F)cc2)n1 [24g]
GI50 (NCI-H226): 7.82 µM
CC50 (NCI-H226): 24.7 µM
GI50 (OVCAR-3): 2.04 µM
CC50 (OVCAR-3): 5.61 µM
GI50 (MDA-MB-435): 2.86 µM
CC50 (MDA-MB-435): 8.49 µM
GI50 (UACC-62): 6.24 µM
CC50 (UACC-62): 19.4 µM
GI50 (M14): 3.39 µM
CC50 (M14): 12.9 µM
GI50 (U251): 3.42 µM
CC50 (U251): 13 µM
GI50 (HS 578T): 12.7 µM
CC50 (HS 578T): 49.5 µM
GI50 (EKVX): 4.2 µM
CC50 (EKVX): 15.7 µM
GI50 (MDA-MB-231/ATCC): 8.38 µM
CC50 (MDA-MB-231/ATCC): 20.8 µM
GI50 (UACC-257): 11 µM
CC50 (UACC-257): 25 µM
GI50 (OVCAR-5): 12 µM
CC50 (OVCAR-5): 24.4 µM
GI50 (SF-268): 7.71 µM
CC50 (SF-268): 22.5 µM
GI50 (MCF7): 1.7 µM
CC50 (MCF7): 3.56 µM
GI50 (HL-60(TB)): 3.81 µM
CC50 (HL-60(TB)): 30 µM
GI50 (DU-145): 11.2 µM
CC50 (DU-145): 24 µM
GI50 (T-47D): 5.16 µM
CC50 (T-47D): 19.6 µM
GI50 (BT-549): 12.7 µM
CC50 (BT-549): 25.6 µM
GI50 (A498): 13 µM
CC50 (A498): 26.2 µM
GI50 (SN12C): 6.36 µM
CC50 (SN12C): 19.9 µM
GI50 (RPMI-8226): 3 µM
CC50 (RPMI-8226): > 100 µM
GI50 (OVCAR-8): 12.3 µM
CC50 (OVCAR-8): 30.6 µM
GI50 (NCI-H322M): 11.6 µM
CC50 (NCI-H322M): 24.3 µM
GI50 (HT29): 1.91 µM
CC50 (HT29): 3.95 µM
hemolysis at 24 h, 200 µg/mL [1]: 0.8%
GI50 (LOX IMVI): 1.86 µM
CC50 (LOX IMVI): 3.84 µM
GI50 (CCRF-CEM): 3.79 µM
CC50 (CCRF-CEM): > 100 µM
GI50 (ACHN): 5.08 µM
CC50 (ACHN): 17.4 µM
GI50 (HCT-116): 1.68 µM
CC50 (HCT-116): 3.13 µM
GI50 (OVCAR-4): 8.78 µM
CC50 (OVCAR-4): 23.1 µM
GI50 (MOLT-4): 2.9 µM
CC50 (MOLT-4): 9.61 µM
GI50 (SF-539): 10.7 µM
CC50 (SF-539): 22.5 µM
GI50 (SF-295): 11.3 µM
CC50 (SF-295): 23.5 µM
activity at 10 µM (60 cancer cell lines): -27.2%
GI50 (MALME-3M): 14.2 µM
CC50 (MALME-3M): 27.5 µM
GI50 (COLO 205): 11.2 µM
CC50 (COLO 205): 24.8 µM
GI50 (UO-31): 6.41 µM
CC50 (UO-31): 19.9 µM
GI50 (PC-3): 4.15 µM
CC50 (PC-3): 18.2 µM
GI50 (HOP-62): 13.6 µM
CC50 (HOP-62): 27.7 µM

COc1cc(/C=C/C(=O)c2ccc(C)cc2)ccc1Oc1nc(Nc2ccc(F)cc2)nc(N(C)C)n1 [21b]
GI50 (NCI-H226): 5.22 µM
CC50 (NCI-H226): 49.1 µM
GI50 (OVCAR-3): 13 µM
CC50 (OVCAR-3): > 100 µM
GI50 (MDA-MB-435): 11.4 µM
CC50 (MDA-MB-435): 70.4 µM
GI50 (UACC-62): 10.1 µM
CC50 (UACC-62): > 100 µM
GI50 (M14): 14.7 µM
CC50 (M14): > 100 µM
GI50 (U251): 3.32 µM
CC50 (U251): > 100 µM
GI50 (HS 578T): 7.24 µM
CC50 (HS 578T): > 100 µM
GI50 (EKVX): 6.71 µM
CC50 (EKVX): > 100 µM
GI50 (MDA-MB-231/ATCC): 5.24 µM
CC50 (MDA-MB-231/ATCC): 50.8 µM
GI50 (UACC-257): 8.76 µM
CC50 (UACC-257): > 100 µM
GI50 (OVCAR-5): 16.5 µM
CC50 (OVCAR-5): > 100 µM
GI50 (SF-268): 13.9 µM
CC50 (SF-268): > 100 µM
GI50 (MCF7): 3.57 µM
CC50 (MCF7): > 100 µM
GI50 (HL-60(TB)): 19.1 µM
CC50 (HL-60(TB)): > 100 µM
GI50 (DU-145): 25.8 µM
CC50 (DU-145): > 100 µM
GI50 (T-47D): 3.57 µM
CC50 (T-47D): > 100 µM
GI50 (BT-549): 6.27 µM
CC50 (BT-549): 91.3 µM
GI50 (A498): 41.8 µM
CC50 (A498): > 100 µM
GI50 (SN12C): 3.89 µM
CC50 (SN12C): 73 µM
GI50 (RPMI-8226): 3 µM
CC50 (RPMI-8226): > 100 µM
GI50 (OVCAR-8): 7.19 µM
CC50 (OVCAR-8): > 100 µM
GI50 (NCI-H322M): 51.9 µM
CC50 (NCI-H322M): > 100 µM
GI50 (HT29): 8.15 µM
CC50 (HT29): > 100 µM
hemolysis at 24 h, 200 µg/mL [1]: 13%
GI50 (LOX IMVI): 1.84 µM
CC50 (LOX IMVI): 6.69 µM
GI50 (CCRF-CEM): 3.92 µM
CC50 (CCRF-CEM): > 100 µM
GI50 (ACHN): 9.58 µM
CC50 (ACHN): 96.5 µM
GI50 (HCT-116): 2.28 µM
CC50 (HCT-116): 24.4 µM
GI50 (OVCAR-4): 7.94 µM
CC50 (OVCAR-4): > 100 µM
GI50 (MOLT-4): 2.8 µM
CC50 (MOLT-4): > 100 µM
GI50 (SF-539): 7.64 µM
CC50 (SF-539): 44.9 µM
GI50 (SF-295): 8.61 µM
CC50 (SF-295): > 100 µM
activity at 10 µM (60 cancer cell lines): 39%
GI50 (MALME-3M): 15.4 µM
CC50 (MALME-3M): 72.3 µM
GI50 (COLO 205): 41.7 µM
CC50 (COLO 205): > 100 µM
GI50 (UO-31): 4.2 µM
CC50 (UO-31): > 100 µM
GI50 (PC-3): 8.85 µM
CC50 (PC-3): > 100 µM
GI50 (HOP-62): 32.2 µM
CC50 (HOP-62): > 100 µM
